ChEMBL document CHEMBL6096714, “Advancements in Neurotechnology: Pioneering Brain Monitoring and Stimulation for Enhanced Treatment and Understanding” (ACS Med Chem Lett, 2025)
Calls of active or inactive are those of the source. The rule behind the calls is not given here.

How the values were obtained:
Format in all cases: functional, cell-based
Cortical neurone [1] = test: Neuroplasticity effect in female Wistar rat Cortical neuron assessed as increase in neurite number at 10 uM incubated for […]
Cortical neurone [2] = test: Neuroplasticity effect in female Wistar rat Cortical neuron assessed as increase in neurite length at 10 uM incubated for […]
Cortical neurone [3] = test: Neuroplasticity effect in female Wistar rat Cortical neuron assessed as increase in neurite branching at 10 uM incubated for […]

Structure (SMILES) | Activity (Cortical neurone [1]) | Activity (Cortical neurone [2]) | Activity (Cortical neurone [3])
CN1CCc2[nH]c3cc(Oc4ccccc4)ccc3c2CC1 | Active | Active | Active
CN1CCc2[nH]c3cc(OCc4ccccc4)ccc3c2CC1 | Active | Active | inactive
Cn1c2c(c3ccc(OCc4ccccc4)cc31)CCNCC2 | inactive | inactive | inactive
CN1CCc2[nH]c3cc(OCc4ccc(F)cc4)ccc3c2CC1 | Active | Active | Active
Fc1ccc(Oc2ccc3c4c([nH]c3c2)CCNCC4)cc1 | Active | Active | Active
c1ccc(COc2ccc3c4c([nH]c3c2)CCNCC4)cc1 | Active | Active | Active
